Source: article PMC9609871, “Binding and Kinetic Analysis of Human Protein Phosphatase PP2A Interactions with Caspase 9 Protein and the Interfering Peptide C9h” (Pharmaceutics, 2022)
Peptide text beside a SMILES is read from it. * marks the point of attachment. Biotin = O=C1N[C@H]2[C@H](CS[C@H]2CCCCC(=O)*)N1

Assays:
PP2A [1] = biological target: T1, PP2A (Homo sapiens, UniProt P67775); test: ELISA: PP2A binding to immobilized biotinylated C9h peptides; conditions: OD 450 nm
T1 construct: purchased LSBio
T1 sequence (P67775 whole entry): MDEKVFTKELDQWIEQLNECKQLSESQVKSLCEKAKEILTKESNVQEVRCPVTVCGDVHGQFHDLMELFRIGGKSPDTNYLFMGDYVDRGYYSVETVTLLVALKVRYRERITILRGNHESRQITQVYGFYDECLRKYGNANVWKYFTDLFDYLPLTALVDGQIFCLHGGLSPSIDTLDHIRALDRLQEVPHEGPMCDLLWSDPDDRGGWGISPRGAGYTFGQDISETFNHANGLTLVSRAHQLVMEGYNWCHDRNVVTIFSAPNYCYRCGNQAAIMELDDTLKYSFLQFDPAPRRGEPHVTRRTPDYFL
Method: A total of 100 μL of biotinylated peptides diluted at 100 μM in PBS was incubated for 2 h at room temperature in a 96-well Streptavidine-coated plate (Pierce, Illkirch, Strasbourg, France). Wells were washed five times with PBS/0.05% Tween-20 (PBST) and filled with 100 μL of PP2A (Sigma) diluted in PBS/2.5% BSA (Sigma) at the indicated dilutions. The plate was incubated over night at 4 °C and washed five times with PBST. A total of 100 μL of rabbit polyclonal IgG anti-human PP2Aα (Santa Cruz Biotechnology, Heidelberg, Germany) was added at 5 μg/mL in PBS/BSA for 1 h at room temperature. Wells were washed 5 times with PBST and filled with 100 μL of HRP conjugated anti-rabbit IgG (Sigma) diluted at 1:20,000 in PBS/BSA for 1 h at room temperature. Wells were washed 5 times with PBST, and 100 μL of TMB substrate (Pierce) were added and incubated for 15–45 min. The reaction was stopped with 50 μL of 2 N sulphuric acid, and the absorbance was measured at 450 nm on a Multiskan EX plate reader (Thermo Scientific, Illkirch, Strasbourg, France). The Caspase 9 peptide C9h was labelled with biotin at the N-terminal and C-terminal end of the peptide.

PP2A [2] = biological target: T1, PP2A; test: BLI: PP2A binding to immobilized biotinylated C9h-Cter peptide (Streptavidin biosensor)
Method: Kinetic measurements of PP2A against biotinylated C9h-Cter peptide were run with Streptavidin biosensors (Fortebio, #18-5019). The initial step consisted of coating the biosensor with the peptide diluted in SD at 100 µM for 180 s in 4 µL (not shown) and was followed by three steps for the kinetic study: (i) initial baseline in 300 µL SD for 30 s was measured; (ii) association of PP2A at the indicated concentrations for 180 s in 4 µL was used; and (iii) dissociation step was then monitored in 300 µL SD for 150 s.
Experiments using empty immunosensors (no ligand loaded) were run as control. Sensorgrams were fit globally to a 1:1 binding model by BLItz Pro software, from which the association (kon) and dissociation (koff) rate constants and apparent affinities (KD) were calculated. X2 is the sum of squared deviations between the actual data point and the fitted curve. Values close to zero indicate a good curve fit. The R2 coefficient of determination is a statistical measure of how well the fitted curve approximate the real data points. Values of R2 near 1 indicate a near-perfect fit.

Caspase 9 = test: BLI: Caspase 9 analyte binding to immobilized PP2A (Protein A biosensor, anti-PP2A); set-up: species or system human; conditions: summary: close to, Caspase 9 analyte on immobilized PP2A; read-out: affinity, both models
Method: Kinetic analysis was performed based on biolayer interferometry (BLI) by using a BLItz instrument (ForteBio, Bayonne, France) at room temperature. Prior to use, each biosensor was hydrated in sample diluent (SD: PBS1X, pH 7.0, 0.02% Tween 20, 0.1% BSA) for at least 10 min. Kinetic measurements of PP2A/Caspase 9 interactions were run with Protein A biosensors (Fortebio) and consisted of seven steps, all performed in reaction buffer, as follows: (i) initial baseline in 300 µL SD for 30 s was measured; (ii) 4 µL of mouse anti-Caspase 9 or rabbit anti-PP2A were immobilized on the sensor for 150 s at 133 nM; (iii) the immunosensor was washed with 300 µL SD for 120 s; (iv) 4 µL of purified ligand Caspase 9 at 566 nM (Origen) or PP2A at 694 nM (LSBio) were loaded on the immunosensor for 150 s; (v) the ligand-coated immunosensor was washed with 300 µL SD for 120 s; (vi) association of purified analytes diluted in SD at the mentioned concentrations was studied for 150 s in 4 µL; and (vii) dissociation step was then monitored in 300 µL SD for 120 s.
Experiments using empty immunosensors (no ligand loaded) were run as control. Sensorgrams were fit globally to a 1:1 binding model by BLItz Pro software, from which the association (kon) and dissociation (koff) rate constants and apparent affinities (KD) were calculated. […]

koff (PP2A [2]; biotinylated C9h-Cter coated at 100 µM, analyte PP2A 463, 556 and 694 nM, pH 7.0, room temperature, dissociation 150 s, global 1:1 fit)	dissociation rate of PP2A relative to that with immobilized Caspase 9 (PP2A [2]; immobilized C9h-Cter versus immobilized Caspase 9)	affinity for PP2A compared with whole protein Caspase 9 (PP2A [2]; qualitative comparison)	Kd (Caspase 9)	Molecule	signal recognition compared with C9h-Nter (PP2A [1]; PP2A 0.6 μg/mL, duplicate wells)	binding of PP2A to biotinylated peptide (PP2A [1]; peptide 100 μM on streptavidin plate, PP2A 0.6 μg/mL overnight at 4 °C, mean of duplicate wells, representative of two independent experiments, irrelevant biotinylated peptide as negative control)
0.0087 s⁻¹	approximatively one log higher	slightly lower affinity	–	CC[C@H](C)[C@H](NC(=O)[C@H](CC(=O)O)NC(=O)[C@H](CC(=O)O)NC(=O)[C@H](CC(C)C)NC(=O)[C@@H](NC(=O)[C@H](CCC(=O)O)NC(=O)[C@@H](NC(=O)[C@@H](N)Cc1ccc(O)cc1)C(C)C)[C@@H](C)O)C(=O)N[C@@H](Cc1ccccc1)C(=O)N[C@@H](CCC(=O)O)C(=O)N[C@@H](CCC(N)=O)C(=O)N[C@@H](Cc1c[nH]c2ccccc12)C(=O)N[C@@H](C)C(=O)N[C@@H](Cc1c[nH]cn1)C(=O)N[C@@H](CO)C(=O)N[C@@H](CCC(=O)O)C(=O)N[C@@H](CC(=O)O)C(=O)N[C@@H](CC(C)C)C(=O)N[C@@H](CCCCNC(=O)CCCC[C@@H]1SC[C@@H]2NC(=O)N[C@@H]21)C(=O)O [C9h-Cter] (H-YVETLDDIFEQWAHSEDLK(Biotin)-OH; N-terminus and C-terminus assumed)	stronger signal recognition than that of C9h-Nter	bind to the PP2A protein in a specific manner
–	–	–	~100 nM	PP2A: protein phosphatase 2A (LSBio), serine/threonine phosphatase	–	–
